Assay results published in patent US10124001B2, “Stem cell modulation II” (University of Canberra, priority 2013, dated 2018).
Entries after “also recorded” stand apart in the source; their conditions may differ. Values belong to the compound of their own block, whether it stands above or below them.

Legend:
[1] = target: PKC-θ (Homo sapiens, UniProt Q04759); assay: PKC ELISA-based kinase assay, in-vitro PKC-θ activity; type: biochemical; conditions: FIG. 6A
Description: (§1) PKC activity assay were purchased from Enzo Life Sciences (DI-EKS-420A) and assays were performed according to the manufacture's protocol as previously described (Sutcliffe, 2012, supra).
(§2) PKC-θ and PKC-β activity assays (Enzo Life Sciences; DI-EKS-420A) were performed according to the manufacturer's protocol and as previously described (Sutcliffe et. Al., 2012. Chromatinized Protein Kinase C-theta: Can It Escape the Clutches of NF-kappaB? Front Immunol 3:260).

[2] = tested on: PKC; assay: PKC ELISA-based kinase assay of nuclear or cytoplasmic extract from MCF-IM; type: cell-based, human; conditions: assays without specific immunoprecipitates, global PKC activity (FIG. 6B)
Description: as §1, §2

[3] = tested on: NF-κB p65; assay: Immunoblotting of MCF-IM nuclear and cytoplasmic fractions for NF-κB p65; type: cell-based, human
Description: Immunoblot analysis was performed according to the manufacturer's protocol and as previously described (Rao et al., 2003 c-Rel is required for chromatin remodeling across the IL-2 gene promoter. Journal of immunology 170:3724-3731.) with anti-PKC-θ (sc-212, SantaCruz), anti-p65 (ab7970, Abcam), anti-p65 phospho (ser-468) (3039, Cell Signaling), anti-p65 phospho (ser-536) (3031, Cell Signaling) and RNA Pol II(c-21) (ab817, Abcam) antibodies.

[4] = tested on: NF-κB p50 and p65; assay: NF-κB activity assay (TransAM NF-κB Family kit), MCF-IM nuclear extracts; type: cell-based, human; conditions: MCF-IM treated with C27 vs vehicle
Description: TransAM NF-κB Family kit was used for NF-κB activity assays (43296, Active Motif). Assays were performed according to the manufacturer's guidelines. 5 μg protein from MDA-MB231 or MCF-IM derived whole cell, nuclear and cytoplasmic extracts were used in triplicate for the assays. Raji nuclear extract was used as a positive control Wild-type and mutated consensus oligonucleotides were also used as a negative and positive controls respectively.

[5] = tested on: MCF-7 cells; assay: TaqMan real time PCR transcript analysis of inducible EMT/CSC genes in MCF-IM model; type: cell-based, human; conditions: for transcription of key inducible EMT/CSC genes (laminin-5, uPAR, CD44): 1 hour prior to PMA 60 hrs
Description: (§3) Human TaqMan™ primer sets used were: CD44, Hs00153304, CD24, Hs00273561, uPAR, Hs00182181, Laminin-5, Hs00194333, Zeb-1, Hs00611018, Fibronectin, Hs00415006 and Integrin-β, Hs00168458 (Applied Biosystems). Primers used for SYBR Green real-time PGR are: Zeb1 (sense: 5′-[…]-3′ and antisense: 5′-[…]-3′) and Cyclophilin A (sense: 5′-[…]-3′ and antisense: 5′-CACCACATGCTTGCCATCC-3′).
(§4) Total RNA was extracted using TRIzol® Reagent (Invitrogen) and first strand cDNA was synthesized using the Superscript™ III RNase H-reverse transcriptase kit (Invitrogen). TaqMan® Gene Expression Assays and SYBR Green real-time PCR were performed as previously described (Sutcliffe et al., 2009, Molecular and Cellular Biology, 29: 1972-86). MicroRNA assays were performed with the TaqMan® MicroRNA Reverse Transcription Kit (ABI 4366596) and the data were normalized to RNU6B as previously described in Sutcliffe et al. ([…], Molecular Cell 41:704-719).

[6] = tested on: MCF-7 cells; assay: FACS analysis of CD44high/CD24low CSC-like subpopulation in MCF-IM model; type: cell-based, human; conditions: for CSC formation (CD44high/CD24low, FACS): compound 27 1 uM for 24 hours pre-treatment, PMA 0.65 ng/ml 60 h; for CD44 high CD24 low CSC-like subpopulation (FACS): bisindolylmaleimide-I 100 nm and 1 μM or Go6976 1 μM prior to PMA 60 hrs
Description: (§5) The adherent human mammary adenocarcinoma MCF-7 and MDA-MB-231 cells were cultured in low glucose DMEM (Gibco) and both supplemented with 10% FCS, 2 mM L-glutamine and 0.1% PSN antibiotics. Cells were stimulated with 0.65 ng/ml of phorbol 12-myristate 13-acetate (PMA) (Sigma-Aldrich) or 20 ng/ml of TGF-β (R&D systems) for the times indicated. For Bisindolylmaleimide-I (Calbiochem) or PKC-θ peptide inhibitor (Calbiochem) studies, cells were pre-treated with 1 μM or 30 μM of inhibitor respectively for 1 h prior to stimulation in MCF-7 cells. In case of MDA-MB-231, cells were treated with 4 μM or 30 μM Bisindolylmaleimide-I or PKC-θ peptide inhibitor respectively.
(§6) To separate CSC from non-CSC (NCSC), florescence activated cell sorting (FACS) was performed on single-cell suspensions that were stained with anti-CD44-APC (559942, BD Biosciences) and anti-CD24-PE antibodies (555428, BD Biosciences) along with Hoechst 33258 to monitor cell viability. As used throughout this work, CSC are defined by minority CD44^high/CD24^low, whereas NCSC are defined by rest of the cell populations.

[7] = tested on: MCF-7 cells; assay: EMT morphology by phase contrast microscopy in MCF-IM model; type: cell-based, human
Description: as §5, with “Cells were stimulated with 0.65 ng/ml of phorbol 12-myristate 13-acetate (PMA) (Sigma-Aldrich) or 20 ng/ml of TGF-β (R&D systems) for the times indicated.” left out
(§7) phase contrast microscopy was performed where cells were viewed at ×4 magnification (wound healing assay) or ×10 magnification (EMT) using an Olympus fluorescence 1X^71 microscope (Olympus) and images were captured using DPController software (2002 Olympus Optical Co. LTD) and analysed using Photoshop CS3 (Adobe Systems Inc.). Scans were taken with a 10 μm scale bar.

[8] = tested on: MDA-MB 231 cells; assay: FACS analysis of CD44high/CD24low CSC-like subpopulation in basal/metastatic model; type: cell-based, human; conditions: bisindolylmaleimide-I 4 μM
Description: as §5, §6

[9] = tested on: MCF-7 cells; assay: Mammosphere assay in MCF-IM model; type: cell-based, human; conditions: 1 μM for 1 hr prior to PMA stimulation, 6 days; mammospheres larger than 60 μm counted
Description: Mammosphere culture media components were purchased from StemCell Technologies and mammosphere assays were performed as recommended by the manufacturer's guidelines. Briefly, 40,000 cells/2 ml cell dilutions were then prepared and 2 ml of cells were seeded in the 6 well-ultralow adherent, flat bottom plates (Costar). Mammospheres larger than 60 μm were counted per well on day 7 and pictures were taken.

[10] = tested on: PKC-θ; assay: ChIP assay of PKC-θ chromatin association at CSC inducible gene promoters in MCF-IM model; type: cell-based, human
Description: ChIP buffers were purchased from Upstate Biotechnology and ChIP assays were performed according to the protocol supplied by Upstate Biotechnology as previously described (Sutcliffe et al., 2011, Molecular Cell. 41:704-719 ). Antibody used were: Anti-PKC-θ (Santa Cruz, sc-212), Anti-PKC-θ Phospho s695 (Abcam, ab76568) and Pol II c-21 (Abcam, ab817), Promoter primers used for RT-PCR were human CD44 (Fwd: […], Rev: […]), uPAR(Fwd: […], Rev: […]) and IL-6 (Fwd: […], Rev: […]). Sequential ChIP assays performed as described previously by Sutcliffe et al., (2011, Molecular Cell. 41: 704-719).

[11] = tested on: MDA-MB 231 cells; assay: EMT morphology by phase contrast microscopy in basal/metastatic model; type: cell-based, human; conditions: Bisindolylmaleimide 4 μM
Description: as §5, §7

[12] = tested on: MDA-MB 231 cells; assay: TaqMan real time PCR transcript analysis of EMT/CSC genes in basal/metastatic model; type: cell-based, human; conditions: bisindolylmaleimide-I 4 μM
Description: as §3, §4

Sequence of PKC-θ (Homo sapiens, UniProt Q04759) (Q04759 whole entry): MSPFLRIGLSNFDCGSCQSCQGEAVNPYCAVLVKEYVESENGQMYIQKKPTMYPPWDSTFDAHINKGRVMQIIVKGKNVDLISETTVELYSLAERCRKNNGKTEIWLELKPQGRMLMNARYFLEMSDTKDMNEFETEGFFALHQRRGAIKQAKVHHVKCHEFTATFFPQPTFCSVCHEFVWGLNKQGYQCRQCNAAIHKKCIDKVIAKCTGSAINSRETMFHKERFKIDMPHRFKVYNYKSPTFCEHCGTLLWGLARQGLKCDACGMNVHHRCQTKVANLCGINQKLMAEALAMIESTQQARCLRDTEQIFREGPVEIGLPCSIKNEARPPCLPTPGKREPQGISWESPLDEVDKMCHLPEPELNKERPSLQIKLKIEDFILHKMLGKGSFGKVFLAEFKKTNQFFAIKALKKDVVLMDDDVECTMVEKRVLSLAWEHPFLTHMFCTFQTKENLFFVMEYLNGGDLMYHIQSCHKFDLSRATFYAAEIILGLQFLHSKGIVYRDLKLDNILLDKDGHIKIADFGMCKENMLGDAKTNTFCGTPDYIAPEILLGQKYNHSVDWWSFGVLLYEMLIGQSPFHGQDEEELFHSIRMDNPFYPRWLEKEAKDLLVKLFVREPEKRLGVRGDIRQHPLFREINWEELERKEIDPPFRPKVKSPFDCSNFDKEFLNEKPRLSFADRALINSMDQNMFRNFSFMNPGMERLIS

PKC-θ activity, in-vitro PKC-θ activity assay [1]: abrogated PKC-θ activity | PKC-θ activity in nuclear and cellular extracts from MCF-IM pre-treated with C27 [2]: abrogated PKC-θ activity
SMILES: CC(C)[C@@](C)(O)[C@@H]1CN(c2nc(-c3n[nH]c4ncccc34)c(F)cc2Cl)CCN1 [Compound C27]
p65 in the cytoplasmic fraction ([3]; C27 treated epithelial and mesenchymal cells, cytoplasmic fraction): global accumulation of p65 was observed in the cytoplasmic fraction | p65 phosphorylation at serine 468 in nuclear extracts ([3]; MCF-IM nuclear extracts, with or without compound 27): this phosphorylation was inhibited | p65 abundance in the nuclei (pan-p65 antibody) ([3]; epithelial and mesenchymal state, nuclear fraction): inhibited p65 abundance in the nuclei | p50 nuclear activity [4]: significantly decreased | p65 nuclear activity [4]: significantly decreased | transcription of CSC inducible genes ([5]; C27 treatment, FIG. 6D): abolished | CSC formation (CD44high/CD24low, FACS) [6]: abolished CSC formation | CSC formation (CD44high/CD24low, FACS) ([6]; listed as compound 27): prevents CSC formation

SMILES: Cn1c2ccccc2c2c3c(c4c5ccccc5n(CCC#N)c4c21)CNC3=O [Go6976]
PMA-induced EMT-like morphological changes ([7]; pre-incubation with Go6976): did not prevent PMA-induced EMT-like morphological changes | transcription of key inducible EMT/CSC genes (laminin-5, uPAR, CD44) ([5]; 1 μM): failed to inhibit transcription of key inducible EMT/CSC genes | CD44 high CD24 low CSC-like subpopulation (FACS) [6]: but not Go 6976 inhibits | PMA-induced CSC formation ([6]; pre-incubation with Go6976): did not prevent

SMILES: CCCCCCCCCCCCCC(=O)O[C@@H]1[C@@H](C)[C@@]2(O)[C@@H](C=C(CO)C[C@]3(O)C(=O)C(C)=C[C@@H]23)[C@@H]2C(C)(C)[C@]12OC(C)=O [PMA, Phorbol 12-Myristate 13-Acetate]
EMT (percentage of cells undergoing EMT, morphology) ([7]; PMA 20 ng/mL for 60 hr, compared with TNF-α, EGF, IL-6, TGF-β): results in maximal EMT; also recorded: caused highest EMT changes | generation of CD44high/CD24low CSC like cells ([6]; induction of PKC pathway by PMA 0.65 ng/mL 60 hr): results in the generation of CD44^high/CD24^low-CSC like cells

SMILES: CN(C)CCCn1cc(C2=C(c3c[nH]c4ccccc34)C(=O)NC2=O)c2ccccc21 [bisindolylmaleimide-I, Bisindolylmaleimide-I]
CD44 high CD24 low CSC-like subpopulation (FACS) [8]: inhibits CD44 high CD24 low-CSC-like subpopulation | EMT (morphology) ([7]; bisindolylmaleimide 1 μM, 1 hr pre-treatment before PMA stimulation 60 hrs): inhibits EMT | mammosphere formation [9]: reduce mammosphere formation | transcription of key inducible EMT/CSC genes (laminin-5, uPAR, CD44) ([5]; 100 nM): cannot inhibit transcription of key inducible EMT/CSC genes | transcription of key inducible EMT/CSC genes (laminin-5, uPAR, CD44) ([5]; 1 μM): inhibits transcription of key inducible EMT/CSC genes | CD44 high CD24 low CSC-like subpopulation (FACS) [6]: only very high concentration of bisindolylmaleimide-I | binding of PKC-θ on the CD44 gene promoter (ChIP) ([10]; as worded in Example 4): reduction of binding of PKC-θ on the CD44 gene promoter | PKC-θ chromatin association across the uPAR promoter (ChIP) ([10]; bisindolylmaleimide-I 1 μM 1 hr pre-incubation, or siRNA 48 hrs, then PMA 60 hrs): reduces its chromatin association across the uPAR promoter | EMT (morphology) [11]: inhibits EMT | transcription of key inducible EMT/CSC genes (laminin-5, uPAR, CD44) [12]: inhibits transcription of key inducible EMT/CSC genes
